Measurements published in patent publication US20260306496A1, “CDK2 INHIBITOR PYRAZOLOPYRIMIDINE COMPOUNDS” (ALEKSIA THERAPEUTICS, INC., priority 2023, published 2026).
Read-outs that look alike come from different tables or passages of the source.

Target: CDK2/CCNE1 (Homo sapiens, UniProt P24941)
Assay: CDK2 homogeneous time-resolved fluorescence (HTRF) assay
Type: biochemical
Conditions: 3 nM CDK2/CCNE1, 1 mM ATP, 50 nM ULight-eIF4E-binding protein 1 (Thr37/46) peptide, 60 min at 23° C.
Procedure: A CDK homogeneous time-resolved fluorescence (HTRF) assay was used to assess the potency of the compounds described herein.
To an untreated 384-well microtiter plate (ProxiPlate) was added 100 nL 100× test compound in DMSO and 5 μL 2×CDK enzyme in assay buffer (50 mM HEPES, 1 mM EGTA, 10 mM MgCl2, 0.01% Tween 20, 2 mM DTT). The plate was centrifuged at 800 RPM for 1 min then incubated for 20 min at 23° C. 2.5 μL per well of 4×ATP and 2.5 μL 4×ULight™-eIF4E-binding protein 1 (Thr37/46) Peptide) substrate were added to all wells. After addition, the plates were centrifuged at 800 RPM for 1 min. The plates were incubated at 23° C. for 60 min. 5 μL per well 3×EDTA solution were added to each well to stop the reaction. 2.5 μL 7×LANCE Ultra Europium-anti-phospho-eTF4E-binding protein 1 (Thr37/46 antibody) were added to each well and the plate was centrifuged for 1 min at 800 RPM. The plate was incubated for 60 min at 23° C. Fluorescence was read at 340 nm excitation and 665 nm emission on an EnVision 2105 fluorescence reader. The final concentrations of reagents in the activity assay were 3 nM CDK2/CCNE1, 1 mM ATP, 50 nM ULight™-eIF4E-binding protein 1 (Thr37/46) Peptide substrate, 1% DMSO, 10 mM EDTA, and 2 nM LANCE Ultra Europium-anti-phospho-eTF4E-binding protein 1 (Thr37/46).
Dose-response titrations were conducted by using an 11-point, three-fold serial dilution scheme typically starting at 1 μM. Signals were reported as fluorescence units at 665 nm or the ratio of fluorescence units at 665 nm/fluorescence units at 615 nm. Signals are referred to below as “Lance signals”.
Using this assay, the IC50 values of example compounds were determined.

[1] = read-out: CDK2/CCNE IC50 >150 nM
[2] = read-out: CDK2/CCNE IC50 <25 nM
[3] = column 25-150 nM, read-out: CDK2/CCNE IC50 25-150 nM

Row | IC50 [1] [nM] | IC50 [3] [nM] | Compound | also measured
1 | > 150 | – | CS(=O)(=O)c1ccc(Nc2ncc3cnn(C[C@H]4CC[C@H](CCl)CC4)c3n2)cc1 [Compound 48, 1-(((1R,4R)-4-(chloromethyl)cyclohexyl)methyl)-N-(4-(methylsulfonyl)phenyl)-1H-pyrazolo[3,4-d]pyrimidin-6-amine] | –
2 | – | – | CS(=O)(=O)c1ccc(Nc2ncc3cnn(C[C@H]4CC[C@@H](CCl)CC4)c3n2)cc1 [Compound 49, 1-(((1S,4S)-4-(chloromethyl)cyclohexyl)methyl)-N-(4-(methylsulfonyl)phenyl)-1H-pyrazolo[3,4-d]pyrimidin-6-amine] | IC50 [2]: < 25 nM
3 | – | 25 to 150 | CS(=O)(=O)c1ccc(Nc2ncc3cnn([C@@H]4CC[C@@H](O)C4)c3n2)cc1 [Compound 50, (1R,3R)-3-(6-((4-(methylsulfonyl)phenyl)amino)-1H-pyrazolo[3,4-d]pyrimidin-1-yl)cyclopentan-1-o1] | –
4 | – | – | CS(=O)(=O)c1ccc(Nc2ncc3cnn([C@@H]4CCC[C@@H](O)C4)c3n2)cc1 [Compound 51, (1R,3R)-3-(6-((4-(methylsulfonyl)phenyl)amino)-1H-pyrazolo[3,4-d]pyrimidin-1-yl)cyclohexan-1-ol] | IC50 [2]: < 25 nM
5 | – | 25 to 150 | CS(=O)(=O)c1ccc(Nc2ncc3cnn([C@@H]4CCC[C@H](C#N)C4)c3n2)cc1 [Compound 52, (1S,3R)-3-(6-((4-(methylsulfonyl)phenyl)amino)-1H-pyrazolo[3,4-d]pyrimidin-1-yl)cyclohexane-1-carbonitrile] | –
6 | – | 25 to 150 | CS(=O)(=O)c1ccc(Nc2ncc3cnn(C4CCC(=O)CC4)c3n2)cc1 [Compound 53, 4-(6-((4-(methylsulfonyl)phenyl)amino)-1H-pyrazolo[3,4-d]pyrimidin-1-yl)cyclohexan-1-one] | –
7 | – | 25 to 150 | OCc1cc(Nc2ncc3cnn(CC4CCCCC4)c3n2)ccc1O [Compound 55, 4-((1-(cyclohexylmethyl)-1H-pyrazolo[3,4-d]pyrimidin-6-yl)amino)-2-(hydroxymethyl)phenol] | –
8 | – | 25 to 150 | CN(C)[C@H]1CC[C@@H](Cn2ncc3cnc(NC4CCN(S(C)(=O)=O)CC4)nc32)CC1 [Compound 56, 1-(((1S,4S)-4-(dimethylamino)cyclohexyl)methyl)-N-(1-(methylsulfonyl)piperidin-4-yl)-1H-pyrazolo[3,4-d]pyrimidin-6-amine] | –
9 | > 150 | – | CS(=O)(=O)c1ccc(Nc2ncc3cnn(C[C@@H]4CCC(=O)N4)c3n2)cc1 [Compound 57, (S)-5-((6-((4-(methylsulfonyl)phenyl)amino)-1H-pyrazolo[3,4-d]pyrimidin-1-yl)methyl)pyrrolidin-2-one] | –
10 | > 150 | – | CS(=O)(=O)c1ccc(Nc2ncc3cnn(CCc4ccccc4)c3n2)cc1 [Compound 62, N-(4-(methylsulfonyl)phenyl)-1-phenethyl-1H-pyrazolo[3,4-d]pyrimidin-6-amine] | –
11 | > 150 | – | CS(=O)(=O)c1ccc(Nc2ncc3cnn(CC4CCOCC4)c3n2)cc1 [Compound 63, N-(4-(methylsulfonyl)phenyl)-1-((tetrahydro-2H-pyran-4-yl)methyl)-1H-pyrazolo[3,4-d]pyrimidin-6-amine] | –
12 | – | 25 to 150 | CCN(C)[C@H]1CC[C@@H](Cn2ncc3cnc(Nc4ccc(S(C)(=O)=O)cc4)nc32)CC1 [Compound 75, 1-(((1s,4s)-4-(ethyl(methyl)amino)cyclohexyl)methyl)-N-(4-(methylsulfonyl)phenyl)-1H-pyrazolo[3,4-d]pyrimidin-6-amine] | –
13 | – | 25 to 150 | CS(=O)(=O)c1ccc(Nc2ncc3cnn(-c4ccc5cn[nH]c5c4)c3n2)cc1 [Compound 76, 1-(1H-indazol-6-yl)-N-(4-(methylsulfonyl)phenyl)-1H-pyrazolo[3,4-d]pyrimidin-6-amine] | –
14 | > 150 | – | CS(=O)(=O)c1ccc(Nc2ncc3cnn(CC4CCCCC4)c3n2)cc1C(F)(F)F [Compound 79, 1-(cyclohexylmethyl)-N-(4-(methylsulfonyl)-3-(trifluoromethyl)phenyl)-1H-pyrazolo[3,4-d]pyrimidin-6-amine] | –
15 | > 150 | – | CS(=O)(=O)c1ccc(Nc2ncc3cnn(CC4CCCCC4)c3n2)cc1F [Compound 80, 1-(cyclohexylmethyl)-N-(3-fluoro-4-(methylsulfonyl)phenyl)-1H-pyrazolo[3,4-d]pyrimidin-6-amine] | –
16 | – | 25 to 150 | Cn1ncc2cc(-n3ncc4cnc(Nc5ccc(S(C)(=O)=O)cc5)nc43)ccc21 [Compound 81, 1-(1-methyl-1H-indazol-5-yl)-N-(4-(methylsulfonyl)phenyl)-1H-pyrazolo[3,4-d]pyrimidin-6-amine] | –
17 | > 150 | – | Cn1cc2cc(-n3ncc4cnc(Nc5ccc(S(C)(=O)=O)cc5)nc43)ccc2n1 [Compound 82, 1-(2-methyl-2H-indazol-5-yl)-N-(4-(methylsulfonyl)phenyl)-1H-pyrazolo[3,4-d]pyrimidin-6-amine] | –
18 | > 150 | – | CN(CCO)[C@H]1CC[C@H](Cn2ncc3cnc(Nc4ccc(S(C)(=O)=O)cc4)nc32)CC1 [Compound 84, 2-(methyl((1r,4r)-4-((6-((4-(methylsulfonyl)phenyl)amino)-1H-pyrazolo[3,4-d]pyrimidin-1-yl)methyl)cyclohexyl)amino)ethan-1-ol] | –
